Consider 8 compounds from patent US20240092756A1, “METHODS AND COMPOSITION FOR KRAS MODIFICATIONS” (2692372 ONTARIO, INC., priority 2020, published 2024).

SMILES strings stand for the structures.

Assay [1] addresses KRAS G12C Lite (SEQ ID NO:3) (Homo sapiens, UniProt P01116, C118S/C51S/C80S/G12C/S136P/S39C). The assay can be described thus: Intact mass analysis (LC-MS) of covalent modification, KRAS G12C Lite. It counts as binding. On the set-up: key to KRAS Lite Modification: a: KRAS Lite modified. As to conditions: for KRAS Lite Modification: intact mass spectrometry, covalent modification of KRAS G12C Lite; for covalent adduct mass, His-tagged KRAS G12C Lite: modification by one molecule of compound. How it is done: (§1) The covalent modification of the proteins with the compounds were evaluated using intact mass analysis by liquid chromatography-mass spectrometry instrument (LC-MS/MS).
(§2) The reaction solution (20 μL) was prepared in 96-well plate and contained the protein (2 μM), the compound (100 μM), HEPES buffer (20 mM, pH 8), 2% DMSO, 2% glycerol, and 150 mM NaCl. The reaction was allowed to proceed for 24 h at 25° C. The reaction solution (1 μL) was injected into the LC/MS/MS without any further sample preparation.
(§3) The LC-MS/MS instrument comprises of a Waters G2-XS quadrupole-time of flight (QTof) mass spectrometer and a Waters Acuity I-class Ultra-High Performance Liquid Chromatography (UPLC) system. The I-class UPLC system includes a binary solvent manager (BSM), and an Acquity sample manager (SM). The mobile phase consisted of: A) 0.1% (v/v) formic acid in MilliQ water; B) 0.1% (v/v) formic acid acetonitrile. Gradients were run over 5 min and proceeded as follows: A:B, 85:15, 0.0-0.7 min, 85:15→15:85, 0.7-1.5 min, 10:90, 1.5-4 min, 10:90→85:15, 4-4.5 min, 85:15, 4.5-5 min. The analytical column was a Waters BEH C4 column 1.7 μm (50×1 mm) column with pore sizes of 300 Å. The TOF MS data was collected in positive ion mode (m/z of 400-2000 Da) using MassLynx software (Waters).
(§4) The spectral deconvolution was performed using UNIFI software (Waters). The added mass of the protein upon covalent modification to cysteine residues were specified. Multiple modification of up to 8 cysteine was allowed. All the adducts with signal intensities of <2% of the base peak were ignored. The % modification was calculated as the adduct signal intensity over the total intensities of the protein peaks and the adducts.

Assay [2] has as its target T1, KRAS G12C (Homo sapiens, UniProt P01116, G12C). In words: Differential scanning fluorimetry, KRAS G12C. It counts as binding. On the set-up: purchased; key: Y: protein destabilized; N: protein not destabilized. The note with it: 37° C. 5 hours incubation. The procedure:
(§5) KRas proteins at 0.05 mg/ml in buffer Hepes, 147 mM NaCl, 2% glycerol, 5 mM MgCl2, 1 mM EDTA, 10 μM GDP, pH 8.0 were incubated in the presence desired concentration of compounds (5% DMSO final concentration) at 37° C. for 5 hours. After incubation, Sypro Oange to a final concentration of 5× was added to each sample. 20 μl aliquots of samples were transferred PCR tubes, sealed with caps, and run in a BioRad CFX96 RTPCR thermocycler. In the instrument, the samples were heated at a rate of 1° C./min from 25 to 90 degrees. Fluorescence readings were taken every 1 degree. The data generated was exported and analyzed using GraphPad-Prism software. The denaturation curves were fit using a Boltzmann sigmoidal equation to calculate melting temperatures (Tm).

Assay [3] deals with T1, KRAS G12C. The assay can be described thus: SOS1-catalyzed KRAS coupled nucleotide exchange assay (Alpha technology). The assay is classed as biochemical. On the set-up: His; key: A: KRAS G12C bound and modulated. The note with it: inhibition of SOS1 mediated KRAS nucleotide exchange. An outline of the steps: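 Alpha readout of c-RAF RBD binding to GTP-bound KRAS, normalized to DMSO. Method I: 20 nM GDP-KRAS G12C/C118A with compound 5 min, then 1.25 mM GTP + 500 nM SOS-1 30 min, pH 7.4 HEPES/MgCl2 buffer, 50 nM RBD. Method II: 50 nM GDP-KRAS G12C with compound 2 h, 1 mM GTP + 500 nM SOS-1 30 min, 2.5 nM GST-RBD; RT throughout.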

The target in assay [4] is T2, KRAS G12C (SEQ ID NO:1 or SEQ ID NO:2) (Homo sapiens, UniProt P01116, G12C).
T2 construct: purchased
In words: Intact mass analysis (LC-MS) of covalent modification, KRAS G12C. It counts as binding. On the set-up: key to KRAS G12C Modification: b: KRAS G12C modified. As to conditions: for KRAS G12C Modification: intact mass spectrometry, covalent modification of KRAS G12C FL; for covalent adduct mass, His-tagged KRAS G12C: modification by one molecule of compound. How it is done: as §1, §2, §3, §4

A further assay addresses KRAS G12C Lite (Homo sapiens, UniProt P01116, C118S/C51S/C80S/G12C/S136P/S39C). In words: Differential scanning fluorimetry, KRAS G12C Lite. The note with it: 37° C. 5 hours incubation. It counts as binding. On the set-up: key: Y: protein destabilized; N: protein not destabilized. The procedure: as §5
In general terms: Differential scanning fluorimetry follows unfolding on heating by fluorescence.

The test system of assay [5] is phospho-ERK1/2 in MIA PaCa-2 cells (express KRAS G12C). The assay can be described thus: ERK1/2 phosphorylation in MIA PaCa-2 cells. The assay is classed as cell-based, human. Set-up: key: X: KRAS G12C bound and modulated in cells.

With `Cc1ccnc(C(C)C)c1-n1c(=O)nc(N2CC(NS(=O)(=O)c3c(F)c(F)c(F)c(F)c3C(F)(F)F)C2)c2cc(F)c(Cl)nc21` [Compound 13A, N-(1-(7-chloro-6-fluoro-1-(2-isopropyl-4-methylpyridin-3-yl)-2-oxo-1,2-dihydropyrido[2,3-d]pyrimidin-4-yl)azetidin-3-yl)-2,3,4,5-tetrafluoro-6-(trifluoromethyl)benzenesulfonamide], in assay [1], the “KRAS Lite Modification” value is “a”. The “KRAS G12C DSF ΔTm” value on KRAS G12C [2] is “Y”. The “KRAS-SOS1 Nucleotide Exchange” value at KRAS G12C [3] is “A”. Moreover, in assay [4], the “KRAS G12C Modification” value is on record as “b”. In addition, the “KRAS G12C Lite DSF ΔTm” value on KRAS G12C Lite was “Y”.
For `CN1CCC[C@H]1COc1nc2c(c(N3CCN(S(=O)(=O)c4c(F)c(F)c(F)c(F)c4C(F)(F)F)CC3)n1)CCN(c1cccc3cccc(Cl)c13)C2` (stereo in doubt) [Compound 42A, (7R)-7-(8-chloro-1-naphthyl)-2-[[(1S,2S)-1-methylpyrrolidin-2-yl]methoxy]-4-[4-[2,3,4,5-tetrafluoro-6-(trifluoromethyl)phenyl]sulfonylpiperazin-1-yl]-6,8-dihydro-5H-pyrido[3,4-d]pyrimidine], the “KRAS Lite Modification” value in assay [1] was “a”. The “KRAS-SOS1 Nucleotide Exchange” value at KRAS G12C [3] is reported as “A”. Also, the “KRAS G12C Modification” value in assay [4] is “b”. The “KRAS G12C Lite DSF ΔTm” value on KRAS G12C Lite is recorded as “Y”.
With `Cc1ccnc(C(C)C)c1-n1c(=O)nc(N2CCN(S(=O)(=O)c3c(F)c(F)c(F)c(F)c3OC(F)F)C[C@@H]2C)c2cc(F)c(Cl)nc21` [Compound 12A, (S)-7-chloro-4-(4-((2-(difluoromethoxy)-3,4,5,6-tetrafluorophenyl)sulfonyl)-2-methylpiperazin-1-yl)-6-fluoro-1-(2-isopropyl-4-methylpyridin-3-yl)pyrido[2,3-d]pyrimidin-2(1H)-one], the “KRAS Lite Modification” value in assay [1] is “a”. Also, at KRAS G12C [2], the “KRAS G12C DSF ΔTm” value is reported as “Y”. Moreover, on KRAS G12C [3], the “KRAS-SOS1 Nucleotide Exchange” value is on record as “A”. In addition, the “KRAS G12C Modification” value in assay [4] is “b”. Further, at KRAS G12C Lite, the “KRAS G12C Lite DSF ΔTm” value is given as “Y”.
For the compound `Cc1ccnc(C(C)C)c1-n1c(=O)nc(N2CCN(S(=O)(=O)c3c(F)c(F)c(F)c(F)c3F)C[C@@H]2C)c2cc(F)c(-c3c(O)cccc3F)nc21` [Compound 1A, 6-fluoro-7-(2-fluoro-6-hydroxyphenyl)-1-(2-isopropyl-4-methylpyridin-3-yl)-4-((S)-2-methyl-4-((perfluorophenyl)sulfonyl)piperazin-1-yl)pyrido[2,3-d]pyrimidin-2(1H)-one], in assay [1], the “KRAS Lite Modification” value is on record as “a” and the “covalent adduct mass, His-tagged KRAS G12C Lite” value is on record as 22,179 Da. Also, on KRAS G12C [3], the “KRAS-SOS1 Nucleotide Exchange” value is “A”. In assay [4], the “KRAS G12C Modification” value is on record as “b” and the “covalent adduct mass, His-tagged KRAS G12C” value is listed as 22,070 Da. Further, the “pERK - MIA PaCa-2 - (6 hours, 5 uM)” value in assay [5] was “X”.
For the compound `Cc1ccnc(C(C)C)c1-n1c(=O)nc(N2CCN(S(=O)(=O)c3c(F)c(F)c(F)c(F)c3C(F)(F)F)C[C@@H]2C)c2cc(F)c(Cl)nc21` [Compound 11A, 7-chloro-6-fluoro-1-(2-isopropyl-4-methylpyridin-3-yl)-4-((S)-2-methyl-4-((2,3,4,5-tetrafluoro-6-(trifluoromethyl)phenyl)sulfonyl)piperazin-1-yl)pyrido[2,3-d]pyrimidin-2(1H)-one], the “KRAS Lite Modification” value in assay [1] is reported as “a”. Also, the “KRAS G12C DSF ΔTm” value at KRAS G12C [2] is “Y”. The “KRAS G12C Modification” value in assay [4] is given as “b”. At KRAS G12C Lite, the “KRAS G12C Lite DSF ΔTm” value was “Y”.
Turning to `Cc1ccnc(C(C)C)c1-n1c(=O)nc(N2CCN(S(=O)(=O)c3c(F)c(F)c(F)c(F)c3OC(F)F)C[C@@H]2C)c2cc(F)c(-c3c(O)cccc3F)nc21` (single isomer, unassigned) [Compound 17A], in assay [1], the “KRAS Lite Modification” value was “a”. At KRAS G12C [3], the “KRAS-SOS1 Nucleotide Exchange” value is “A”. Moreover, in assay [4], the “KRAS G12C Modification” value was “b”. In addition, in assay [5], the “pERK - MIA PaCa-2 - (6 hours, 5 uM)” value is listed as “X”.
In the case of `Cc1ccnc(C(C)C)c1-n1c(=O)nc(NS(=O)(=O)c2c(F)c(F)c(F)c(F)c2F)c2cc(F)c(-c3c(O)cccc3F)nc21` [Compound 3A, 2,3,4,5,6-pentafluoro-N-(6-fluoro-7-(2-fluoro-6-hydroxyphenyl)-1-(2-isopropyl-4-methylpyridin-3-yl)-2-oxo-1,2-dihydropyrido[2,3-d]pyrimidin-4-yl)benzenesulfonamide], the “KRAS Lite Modification” value in assay [1] is listed as “a”. In addition, the “KRAS-SOS1 Nucleotide Exchange” value at KRAS G12C [3] was “A”. Further, the “KRAS G12C Modification” value in assay [4] is recorded as “b”. For the same compound, the “pERK - MIA PaCa-2 - (6 hours, 5 uM)” value in assay [5] was “X”.
Consider `Cc1ccnc(C(C)C)c1-n1c(=O)nc(N2CCN(S(=O)(=O)c3c(F)c(F)c(F)c(F)c3OCF)C[C@@H]2C)c2cc(F)c(-c3c(O)cccc3F)nc21` [Compound 7A, 6-fluoro-7-(2-fluoro-6-hydroxyphenyl)-1-(2-isopropyl-4-methylpyridin-3-yl)-4-((S)-2-methyl-4-((2,3,4,5-tetrafluoro-6-(fluoromethoxy)phenyl)sulfonyl)piperazin-1-yl)pyrido[2,3-d]pyrimidin-2(1H)-one], for which, in assay [1], the “KRAS Lite Modification” value is listed as “a” and the “covalent adduct mass, His-tagged KRAS G12C Lite” value is 22,209 Da. The “KRAS-SOS1 Nucleotide Exchange” value at KRAS G12C [3] is given as “A”. In assay [4], the “KRAS G12C Modification” value is “b” and the “covalent adduct mass, His-tagged KRAS G12C” value is 22,100 Da. For the same compound, in assay [5], the “pERK - MIA PaCa-2 - (6 hours, 5 uM)” value is “X”.
